For orientation: MIC means the least concentration at which growth counts as inhibited. Lower therefore signals inhibition by little substance.

A short description of data set [1]: Hydrophobicity by RP-HPLC retention time. The note with it: for Retention time tR: used as measure of hydrophobicity, RP-HPLC, Phenomenex Luna C18 (100 Å, 5µ), linear gradient 5%B to 95%B over 30 min, A 0.1% TFA in 9:1 water:acetonitrile, B 0.1% TFA in 9:1 acetonitrile:water, 1 mL/min, peptide 0.5 mg/mL in MeOH, UV 215 and 280 nm. It is filed as physicochemical. The procedure:
Peptide hydrophobicity was calculated as difference in retention times between peptide analogues b–h and peptide a. Each peptide was dissolved in MeOH to a concentration of 0.5 mg/mL and then subjected to RP-HPLC on an analytical Phenomenex Luna C18 (100 Å, 5µ) column using 0.1% TFA in 9:1 water:acetonitrile as solvent A, and 0.1% TFA in 9:1 acetonitrile:water as solvent B. The peptides were eluted using a linear gradient as follows: 5%B to 95%B over 30 min. The flow rate was 1 mL/min and the absorbance was measured at 215 nm and 280 nm. The retention time was recorded for each peptide.

A further data set deals with K.pneumoniae ATCC 700603. The data set is classed as cell-based, Klebsiella pneumoniae. Conditions: ATCC 700603, 18 h. The method, then:
(§1) The bacterial strains used were Escherichia coli ATCC 25922, Staphylococcus aureus ATCC 25923, Klebsiella pneumoniae ATCC 700603, Acinetobacter baumannii ATCC 19606, Pseudomonas aeruginosa ATCC 27853 and Staphylococcus epidermidis ATCC 12228. The reference bacterial strains used were purchased from American Type Culture Collection (ATCC) (Manassas, Virginia, USA). They were grown overnight (o/n) at 37 °C in complete Müller-Hinton broth (MHB, Difco) medium with shaking (130 rpm). The day after, the overnight bacterial cultures were diluted in fresh MHB (300 μL o/n culture in 10 mL) and incubated at 37 °C with shaking (130 rpm) for approximately 2 h (mid-log phase) until reaching an optical density (OD) at 600 nm (OD600) ≈ 0.3.
(§2) Peptides diluted in MHB to a concentration of 128 μM were added to the first column of wells of a 96-well round-bottom microtiter plate (Sarstedt, Milan, Italy) and serially diluted (1:2) in a final volume of 50 μL MHB was added to the next wells. Then, a mid-log bacterial cultures (OD 600≈ 0.3) were diluted to 5 × 10^5 colony-forming units (CFU)/mL in MHB and 50 μL of this bacterial suspension was added to each well. In this way, the final bacterial concentration was reduced to 2.5 × 10^5 CFU/mL and the peptide concentration in the wells was also halved in a final volume of 100 μL (final bacteria load was 2.5 × 10^4 CFU/well). The same amount of untreated bacteria in MHB was used as a control for bacterial growth. […] MIC was determined by visual inspection at the end of incubation as the first clear well. Data are reported as moda of independent experiments repeated three times or four times in case of uncertain values.

In another data set the test system is S.epidermidis ATCC 12228. It is filed as cell-based, Staphylococcus epidermidis. Conditions: ATCC 12228, 18 h. The method, then: as §1, §2
The test system of the next data set is A.baumanni ATCC 19606. The data set is classed as cell-based, Acinetobacter baumannii. Conditions: ATCC 19606, 18 h. The procedure:
as §1, §2

The next data set relates to S.aureus ATCC 25923. It is filed as cell-based, Staphylococcus aureus. The procedure:
as §1, §2

The conditions of data set [2]: human serum, 37 °C, preliminary. The procedure: The proteolytic stability of synthetic peptides was assessed using chymotrypsin (Sigma–Aldrich) and human serum (Sigma–Aldrich)[46]. The peptide (0.125 mg) was dissolved in the minimum amount (5 µl) of DMSO (dimethylsulfoxide) and then diluted (final volume: 50 µl) with Tris·HCl 50 mM, pH 7.8. Then, it was incubated with and without the enzyme solution (1.25 µg of enzyme in 150 µl buffer) at 37 °C for 24 h. After the workup procedures, the samples were analysed by RP-HPLC as described in the ‘peptide synthesis and characterization’ experimental section. A peptide not resistant to chymotripsin was used as a positive test. As a control, we used the 128-137 C-terminal portion of natural Endonuclease V. The peptide sequence is as follows: […]. All the degradation experiments were executed in triplicates.
Figure S10. […] The bars indicate the final time when the HPLC-MS signal of the peptides is still detectable in solution.

The next data set has as its system E.coli ATCC 25922. It is filed as cell-based, Escherichia coli. The note with it: ATCC 25922, 18 h. The procedure:
as §1, §2

The test system of a further data set is P.aeruginosa ATCC 27853. The data set is classed as cell-based, Pseudomonas aeruginosa. Conditions: ATCC 27853, 18 h. The method, then: as §1, §2
For data set [3], the system named is E. coli, A. baumannii, K. pneumoniae, P. aeruginosa, and S. epidermidis strains. It is filed as cell-based. Conditions: 18 h. The procedure: as §1, §2
A short description of data set [4]: Circular dichroism, helicity. The data set is classed as physicochemical. The note with it: CD in TFE; taken as suggesting aggregation (coiled-coil). The method, then:
The secondary structure of the peptides was investigated by circular dichroism (CD) spectroscopy in various environments, including 0.2 mM potassium-phosphate buffer (aqueous solution, pH 7), 100 mM sodium dodecyl sulphate (SDS), and 2,2,2-trifluoroethanol (TFE). As these peptides are active on membranes, we chose SDS, as SDS micelles represent a model mimicking the prokaryotic cell membrane. TFE, on the other hand, is a solvent that induces the formation of helical structures.
The electronic CD curves in the far-UV region (below 260 nm) were obtained on a Jasco (Tokyo, Japan) model J-1500 spectropolarimeter with a fused quartz cell of 0.02 cm pathlength (Hellma, Mühlheim, Germany). The values are expressed in terms of [θ]R, the molar ellipticity per residue (deg × cm^2/dmol). Spectra were recorded at room temperature in water, in spectrograde TFE (99.9% Acros Organics, Geel, Belgium) and 100 mM SDS solution at 3 × 10^−4 M peptide concentration. The final molar peptide-to-lipid ratio is 1:300.
(Circular dichroism is the unequal absorption of left and right circularly polarised light.)

Data set [5] deals with ram red blood cells (RBCs). Conditions: 4% v/v ram RBCs in PBS, 1 h, 37 °C, absorbance 540 nm, 100% = 1% Triton X-100; all concentrations tested; n = 3. The procedure:
The lytic potential towards eukaryotic cell membranes was assessed by measuring the release of haemoglobin from commercial ram red blood cells (RBCs) (Microbiol s.r.l., Cagliari, Italy) after exposure to the peptides. First, erythrocytes were isolated by centrifugation, washed with PBS and then suspended at 8% (v/v) in PBS. Secondly, 100 µL erythrocytes suspension was added into each well of a 96-well microplate. Then, 100 µL peptide solution was added to each well at different concentrations (the final concentration of erythrocytes suspension was 4% v/v), and the plates were incubated for 1 h at 37 °C and centrifuged at 1000 g for 10 min. Finally, 100 µL aliquots of supernatant were transferred to fresh 96-well microplate, and the release of haemoglobin was monitored by measuring the absorbance at 540 nm with Tecan microplate reader (Tecan Trading AG, Switzerland). 0% and 100% haemolysis were determined in PBS and 1% Triton X-100, respectively.

Another data set relates to T1, chymotrypsin.
T1 construct: purchased Sigma-Aldrich
The data set is described as follows: Proteolytic stability with chymotrypsin. The note with it: chymotrypsin (isolated enzyme) in buffer, after 90 min, Tris·HCl 50 mM pH 7.8, 37 °C; for remaining at 1.5 h, 0.625 mg/mL: 0.125 mg peptide, 1.25 µg enzyme, HPLC peak area (HPLC–MS), triplicates, read-out: percentage of intact peptide with chymotrypsin. The data set is classed as in vitro ADME. The method, then: The stability of the peptides in the presence of chymotrypsin was monitored by HPLC–MS, analysing the fragments derived from the degradation of the peptide. All 20-mer analogues (a–f) are sensitive to chymotrypsin. The rate of peptide degradation was calculated as the percentage of intact peptide detected at defined time points. All peptides were mostly degraded within the first 15 min of incubation, with the exception of the lipopeptide e and the short peptide h. […] For peptide h, which was designed with an Aib residue to improve proteolytic resistance, 50% of the peptide was still intact after 90 min (Fig. 5A). The other peptides were cleaved on the C-terminal side of Leu21 or Trp23 as the first cleavage observed. Successive degradations involve Leu14 for all peptides (with the exception of a and h). Concerning 13-mer peptides (g and h), degradation at position 21 occurred only for g and not for the Aib containing peptide h, for which Leu14 is the sensitive point for chymotrypsin attack.
All the degradation experiments were executed in triplicates.

The next data set relates to HaCaT cell line. The note with it: 24 h.
For data set [6] the following is noted: 4h and 24 h incubation, different concentrations.
The mark [7] stands for this setting: S.aureus ATCC 25923, Mueller–Hinton broth, 18 h, 37 °C, 2.5 × 10^5 CFU/mL, visual, mode of three independent tests.

In brackets after ≈: the same amount, converted by molar mass. Read-outs that look alike come from different tables or passages of the source. Square brackets hold non-standard residues; d marks the D form. Peptide text beside a SMILES is read from it. * marks the point of attachment. Palmitoyl = CCCCCCCCCCCCCCCC(=O)*; Aib = CC(C)(N)C(=O)O

Experimental for HaCaT cell line: Cytotoxicity was measured by the MTT assay on human immortalized epidermal keratinocyte HaCaT cell line (DKFZ, Eppelheim, Germany). The HaCaT cells were grown in high-glucose Dulbecco’s modified Eagle’s medium (DMEM) (Sigma-Aldrich, Milan, Italy). DMEM medium was supplemented with 10% foetal bovine serum (FBS; Sigma, Milan, Italy), 2 mM glutamine (Sigma, Milan, Italy), 100 U/mL penicillin (Sigma, Milan, Italy) and 100 µg/mL streptomycin (Sigma, Milan, Italy). The cells were maintained at 37 °C in the presence of 5% CO2 and in a humidified incubator.
Cells were counted in a Burker-Türk chamber to prepare a suspension of 2 × 10^5 cells/ml in DMEM High Glucose Complete Medium (Sigma-Aldrich, Milan, Italy). 100 μL of this suspension was added to the wells of a 96-well flat-bottom transparent microtiter plate (Euroclone, Milan, Italy) specially treated for tissue culture. The plate was incubated for 24 h at 37 °C and 5% CO2 to allow the cells in each well to reach a semiconfluent state. The following day, serial dilutions (1:2) of the peptides, starting with 64 μM, were prepared in DMEM medium, and 100 μL of these solutions were used to replace the medium in the plate with HaCaT cells. The same amount of untreated DMEM high-glucose medium was used as a cell growth control. DMEM high-glucose complete medium (100 μL) was used as a negative control to check the sterility of the medium. The plate was sealed with Parafilm to minimize evaporation and incubated at 37 °C and 5% CO2 for 20 h. Then, 25 μL MTT (Sigma-Aldrich, Milan, Italy) dissolved in phosphate-buffered saline (PBS) was added to each well to a final concentration of 1 mg/mL MTT, and the plate was incubated for 4 h in the dark at 37 °C and 5% CO2.
At the end of incubation, 100 μL 10% (w/v) Igepal (Sigma-Aldrich, Milan, Italy) in 10 mM HCl was added to each well, and the plate was incubated overnight in the dark at 37 °C and 5% CO2. The absorbance of MTT at 570 nm was measured using a Nanoquant Infinite-M200Pro plate reader (Tecan, Männedorf, Switzerland). Student’s t-test was performed for all samples.

Regarding Ac-KRLKKIGKVLKWI-NH2 [g], the “Retention time tR” value in data set [1] came out at 12.1 min. Besides, the MIC against K.pneumoniae ATCC 700603 is 8 µM; against S.epidermidis ATCC 12228, 4 µM; in the data set with A.baumanni ATCC 19606 it was 2 µM; against S.aureus ATCC 25923 (ATCC 25923, 18 h), more than 64 µM; against S.aureus ATCC 25923 (setting [7]), more than 64 µM; with E.coli ATCC 25922 it was 4 µM. For the same molecule, in the data set with P.aeruginosa ATCC 27853, the minimum inhibitory concentration (MIC) was found to be 8 µM. Also, the “proteolytic degradation in serum” value in [2] (HPLC-MS) is reported as “rapidly degraded”. The “MIC, span over all tested bacterial strains except S. aureus” value in [3] lay within 2 to 8 µM.
In the case of Ac-KRLKKIGKVLKWIAKIVGSI-NH2 [b], the “Retention time tR” value in [1] was 17.2 min. For the same molecule, the “Hydrophobicity ΔtR” value in data set [1] (ΔtR = tR(x)−tR(a), relative to compound a, RP-HPLC C18, 5%–95%B over 30 min) is 4.0. The “ratio between molar ellipticities at 222 and 208 nm” value in data set [4] is recorded as more than 1. In [5], the “membranolytic (haemolytic) effect on erythrocytes” value (“membranolytic (haemolytic) effect” below) is recorded as “significant lytic effect”. Also, the MIC amounted to 8 µM against K.pneumoniae ATCC 700603; 4 µM against S.epidermidis ATCC 12228; 2 µM against A.baumanni ATCC 19606; 4 µM against S.aureus ATCC 25923 (setting [7]); 4 µM in the data set with E.coli ATCC 25922; 16 µM against P.aeruginosa ATCC 27853.
In the case of `CC[C@H](C)[C@H](NC(=O)[C@H](Cc1c[nH]c2ccccc12)NC(=O)[C@H](CCCCN)NC(=O)C(C)(C)NC(=O)[C@@H](NC(=O)[C@H](CCCCN)NC(=O)CNC(=O)[C@@H](NC(=O)[C@H](CCCCN)NC(=O)[C@H](CCCCN)NC(=O)[C@H](CC(C)C)NC(=O)[C@H](CCCNC(=N)N)NC(=O)[C@H](CCCCN)NC(C)=O)[C@@H](C)CC)C(C)C)C(N)=O` [h] (Ac-KRLKKIGKV[Aib]KWI-NH2), in data set [1], the “Retention time tR” value is 11.7 min. The “membranolytic (haemolytic) effect” value in data set [5] is given as “no membranolytic effect”. Also, the MIC in the data set on K.pneumoniae ATCC 700603 is 8 µM (≈ 13 µg/mL); with S.epidermidis ATCC 12228 it was 8 µM (≈ 13 µg/mL); against A.baumanni ATCC 19606, 2 µM (≈ 3.25 µg/mL); against S.aureus ATCC 25923 (ATCC 25923, 18 h), more than 64 µM; in the data set with S.aureus ATCC 25923 (setting [7]) it was more than 64 µM; with E.coli ATCC 25922 it was 4 µM (≈ 6.49 µg/mL). The molecule also came in with an MIC in the data set with P.aeruginosa ATCC 27853 of 8 µM (≈ 13 µg/mL). Moreover, the remaining at 1.5 h, 0.625 mg/mL with chymotrypsin amounted to 50%. In data set [2], the “time peptide withstands proteolytic degradation in serum (HPLC-MS signal still detectable)” value is reported as “up to 180 min”. The “MIC, span over all tested bacterial strains except S. aureus” value in data set [3] was in the range of 2 to 8 µM.
With `CCCCCCCCCCCCCCCC(=O)N[C@@H](CCCCN)C(=O)N[C@@H](CCCNC(=N)N)C(=O)N[C@@H](CC(C)C)C(=O)N[C@@H](CCCCN)C(=O)N[C@@H](CCCCN)C(=O)N[C@H](C(=O)NCC(=O)N[C@@H](CCCCN)C(=O)N[C@H](C(=O)N[C@@H](CC(C)C)C(=O)N[C@@H](CCCCN)C(=O)N[C@@H](Cc1c[nH]c2ccccc12)C(=O)N[C@H](C(=O)N[C@@H](C)C(=O)N[C@@H](CCCCN)C(=O)N[C@H](C(=O)N[C@H](C(=O)NCC(=O)N[C@@H](CO)C(=O)N[C@H](C(N)=O)[C@@H](C)CC)C(C)C)[C@@H](C)CC)[C@@H](C)CC)C(C)C)[C@@H](C)CC` [e] (Palmitoyl-KRLKKIGKVLKWIAKIVGSI-NH2), the “membranolytic (haemolytic) effect” value in [5] was “significant lytic effect”. For the same molecule, in the data set with HaCaT cell line, the “HC50 (cytotoxicity on HaCaT cells)” value is less than 32 µM. The MIC against K.pneumoniae ATCC 700603 was more than 32 µM; in the data set with S.epidermidis ATCC 12228, more than 32 µM; in the data set on A.baumanni ATCC 19606, more than 32 µM; with S.aureus ATCC 25923 (ATCC 25923, 18 h), more than 32 µM; in the data set on E.coli ATCC 25922, more than 32 µM; in the data set on P.aeruginosa ATCC 27853, more than 32 µM. Moreover, in the data set with chymotrypsin, the remaining at 1.5 h, 0.625 mg/mL is 65%. Moreover, the metabolised at 1.5 h, 0.625 mg/mL in the data set with chymotrypsin (HPLC, read-out: percentage of peptide degraded by chymotrypsin) is less than 50%. For the same molecule, the “solubility in Müller-Hinton broth” value in data set [6] is given as “low solubility”.

The record behind these values is publication PMC10499915 (Scientific Reports, 2023).
